Reference: patent US20090047246A1, “NOVEL INHIBITORS OF HEPATITIS C VIRUS REPLICATION” (InterMune, Inc., priority 2007, published 2009)
Where two headings read alike, the source gives them in different places.

Target: T1, HCV NS3 helicase (Hepatitis C virus genotype 1b, UniProt P26663)
T1 construct: full-length NS3 (1-631), purified at Array BioPharma
Experiment: HCV Helicase Prompt FRET Assay (Example A)
Type: biochemical
Details: for IC50: read-out: IC50 Activity
Experimental: Test compounds were diluted to 2.5 mM by adding 6 uL of a 10 mM solution of the compound to 18 uL of DMSO in a 384-well Costar polypropylene plate. Serial dilutions (2.5×) were performed in the plate using DMSO as the diluent. 1 ul of solution was transferred from each well to a new 384-well Costar polypropylene plate.
A 2× mixture was prepared containing 100 nM helicase substrate, 500 nM helicase capture strand (CS), and 600 μM ATP by diluting stock solutions with assay buffer consisting of 25 mM MOPS, pH 7.0, and 1.5 mM MgCl2, 0.005% (v/v) Triton X-100. Stock helicase substrate was prepared by annealing a FAM-labeled oligonucleotide to a BHQ-1 labeled oligonucleotide, which were both custom synthesized and HPLC-purified at Biosearch Technologies. The FAM-labeled and BHQ-labeled oligonucleotide had the following sequences:
The helicase capture strand was custom synthesized and purified at Integrated DNA Technologies. The helicase capture strand had the following sequence:
The ATP solution was prepared in MilliQ water, pH adjusted to approximately 7 with NaOH. ATP powder was obtained from Sigma (A-7699). The concentration was determined via A260 (ext. coeff=15,400 M^−1cm^−1).
11.5 μL of assay buffer was added to all wells of the plate containing luL of test compound. 5 μL of the Compound/assay buffer mixture was added to a black polystyrene 384-well Proxiplate. A 4× Enzyme solution was prepared by diluting enzyme stock containing full-length NS3 (1-631), purified at Array BioPharma, with assay buffer. 5 μL of the 4× Enzyme solution was added to the Proxiplate and incubated for 5 minutes (for control wells lacking enzyme, assay buffer was used instead). 10 μL of 2× substrate/CS/ATP mixture was then added to all wells of Proxiplate. The final assay conditions included 50 nM Substrate, 250 nM Capture Strand, 300 μM ATP, 5 or 6 nM Enzyme, and 2% (v/v) DMSO. The reaction proceeded for 70 cycles (˜30 min.) on an Envision at room temperature. The plate was read using the Envision (top mirror=FITC; Excitation filter=FITC 485; Emission filter=FITC 535). The fluorescence intensity was recorded for a total of 30 minutes. The initial rates of the reactions was calculated and used to calculate IC50 values. The IC50 curve fitting was performed using either a 4-parameter or 5-parameter logistic equation.

[1] = HCV NS3 helicase, tables do not say whether Example A or Example B assay

T1 sequence (P26663 1027-1657): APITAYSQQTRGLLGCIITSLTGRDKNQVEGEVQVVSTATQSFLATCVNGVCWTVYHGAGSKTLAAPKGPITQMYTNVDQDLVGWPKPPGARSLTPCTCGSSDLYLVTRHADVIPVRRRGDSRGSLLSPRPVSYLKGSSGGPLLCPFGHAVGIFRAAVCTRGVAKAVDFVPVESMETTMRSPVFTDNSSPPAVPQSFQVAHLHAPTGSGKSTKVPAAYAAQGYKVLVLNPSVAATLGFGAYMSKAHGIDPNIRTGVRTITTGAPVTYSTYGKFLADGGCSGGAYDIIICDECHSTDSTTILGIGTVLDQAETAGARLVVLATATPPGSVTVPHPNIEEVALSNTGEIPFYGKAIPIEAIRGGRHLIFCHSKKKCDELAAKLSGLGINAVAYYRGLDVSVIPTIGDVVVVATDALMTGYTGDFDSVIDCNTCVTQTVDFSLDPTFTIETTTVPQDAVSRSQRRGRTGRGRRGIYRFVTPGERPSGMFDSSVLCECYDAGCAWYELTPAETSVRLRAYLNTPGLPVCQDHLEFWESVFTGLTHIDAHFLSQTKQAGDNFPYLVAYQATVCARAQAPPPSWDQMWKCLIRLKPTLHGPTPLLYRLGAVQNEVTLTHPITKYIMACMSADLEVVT

SMILES | IC50 [1] [µM] | further results
CCOC(=O)Cc1cn(Cc2c(C)sc3ccc(Cl)cc23)c2cc(-c3cc(N)cc(N)c3)ccc12 [Compound 617] |  | IC50 Activity (Table 27, compounds made using Scheme 34): B or C
CCOC(=O)Cc1cn(Cc2cccc(N(C)c3ccccc3Cl)c2)c2cc(-c3cccc(O)c3)ccc12 [Compound 624] |  | IC50 (Table 30, compounds made using Scheme 37): 10 to 50 µM
O=C(O)Cc1cn(Cc2csc3ccc(Cl)cc23)c2ccc(Br)cc12 [Example 100] | 10 to 50 | 
CC(C)c1ccc(Cn2cc(CC(=O)O)c3cc(Br)ccc32)cc1 [Example 102] | 10 to 50 | 
O=C(O)Cc1cn(Cc2ccccc2C(F)(F)F)c2ccc(Br)cc12 [Example 103] | 10 to 50 | 
O=C(O)Cc1cn(CCCc2ccccc2)c2ccc(Br)cc12 [Example 104] | 10 to 50 | 
COc1ccc2c(c1)c(CC(=O)O)cn2Cc1csc2ccc(Cl)cc12 [Example 106] | 10 to 50 | 
COc1ccc2c(c1)c(CC(=O)O)cn2Cc1cccc(OCc2ccccc2)c1 [Example 107] | 10 to 50 | 
O=C(O)Cc1cn(Cc2cccc(Cl)c2)c2ccc(Br)cc12 [Example 108] | 10 to 50 | 
O=C(O)Cc1cn(Cc2ccc(Cl)c(Cl)c2)c2ccc(Br)cc12 [Example 110] | 10 to 50 | 
COc1cccc(Cn2cc(CC(=O)O)c3cc(Br)ccc32)c1 [Example 111] | 10 to 50 | 
O=C(O)Cc1cn(Cc2cccc(Br)c2)c2ccc(OCc3ccccc3)cc12 [Example 113] | 10 to 50 | 
CC(C)c1ccc(Cn2cc(CC(=O)O)c3cc(OCc4ccccc4)ccc32)cc1 [Example 114] | 10 to 50 | 
O=C(O)Cc1cn(Cc2cccc(OCc3ccccc3)c2)c2ccccc12 [Example 116] | 10 to 50 | 
CN(C)C(=O)c1cccc(-c2cccc(Cn3cc(CC(=O)O)c4cc(OCc5ccccc5)ccc43)c2)c1 [Example 117] | 10 to 50 | 
O=C(O)Cc1cn(Cc2cccc(-c3cncnc3)c2)c2ccc(OCc3ccccc3)cc12 [Example 119] | 10 to 50 | 
O=C(O)Cc1cn(Cc2csc3ccc(Cl)cc23)c2ccccc12 [Example 121] | 10 to 50 | 
Cc1cc(-c2cccc(Cn3cc(CC(=O)O)c4cc(OCc5ccccc5)ccc43)c2)on1 [Example 124] | 10 to 50 | 
O=C(O)Cc1cn(Cc2csc(-c3ccccc3)n2)c2ccc(OCc3ccccc3)cc12 [Example 125] | 10 to 50 | 
O=C(O)Cc1cn(Cc2noc(-c3ccccc3)n2)c2ccc(OCc3ccccc3)cc12 [Example 126] | 10 to 50 | 
O=C(O)Cc1cn(Cc2cccc(-c3c[nH]nn3)c2)c2ccc(OCc3ccccc3)cc12 [Example 127] | 10 to 50 | 
CCOC(=O)c1ccc(Cn2cc(CC(=O)O)c3cc(OCc4ccccc4)ccc32)o1 [Example 128] | 10 to 50 | 
O=C(O)Cc1cn(Cc2cccc(-c3cccnc3)c2)c2ccc(OCc3ccccc3)cc12 [Example 130] | 10 to 50 | 

SMILES | IC50 [1] [µM] | further results
O=C(O)Cc1cn(Cc2csc3ccc(F)cc23)c2ccc(Br)cc12 [Example 132] | 10 to 50 | 
O=C(O)Cc1cn(Cc2csc3ccc(F)cc23)c2ccccc12 [Example 133] | 10 to 50 | 
O=C(O)Cc1cn(Cc2cc(F)cc(C(F)(F)F)c2)c2ccc(Br)cc12 [Example 134] | 10 to 50 | 
O=C(O)Cc1cn(Cc2ccc(Cl)s2)c2ccc(Br)cc12 [Example 137] | 10 to 50 | 
O=C(O)Cc1cn(Cc2cc(-c3ccccc3)no2)c2ccc(Br)cc12 [Example 138] | 10 to 50 | 
CC(C)Oc1ccc2scc(Cn3cc(CC(=O)O)c4cc(Br)ccc43)c2c1 [Example 141] | 10 to 50 | 
CCOc1ccc2scc(Cn3cc(CC(=O)O)c4ccccc43)c2c1 [Example 142] | 10 to 50 | 
O=C(O)Cc1cn(-c2ccc3ccccc3c2)c2ccccc12 [Example 143] | 10 to 50 | 
O=C(O)Cc1cn(-c2ccc3sccc3c2)c2ccccc12 [Example 147] | 10 to 50 | 
O=C(O)Cc1cn(-c2ccc3c(c2)CCC3=O)c2ccccc12 [Example 148] | 10 to 50 | 
Cc1cc(NC(=O)Cc2ccccc2)ccc1-n1cc(CC(=O)O)c2ccccc21 [Example 156] | 10 to 50 | 
Cc1cc(NC(=O)Cc2cccs2)ccc1-n1cc(CC(=O)O)c2ccccc21 [Example 157] | 10 to 50 | 
Cc1cc(NC(=O)c2cccs2)ccc1-n1cc(CC(=O)O)c2ccccc21 [Example 158] | 10 to 50 | 
Cc1cc(NC(=O)CSc2ccccc2)ccc1-n1cc(CC(=O)O)c2ccccc21 [Example 159] | 10 to 50 | 
CC(=O)N(C)c1ccc(-n2cc(CC(=O)O)c3ccccc32)c(C)c1 [Example 160] | 10 to 50 | 
Cc1oncc1C(=O)Nc1ccc(-n2cc(CC(=O)O)c3ccccc32)cc1 [Example 163] | 10 to 50 | 
O=C(O)Cc1cn(-c2ccc(NC(=O)Cc3ccsc3)cc2)c2ccccc12 [Example 164] | 10 to 50 | 
CCN(Cc1ccccc1)c1ccc(-n2cc(CC(=O)OC)c3ccccc32)cc1 [Example 165] | 10 to 50 | 
CCN(Cc1ccccc1)c1ccc(-n2cc(CC(=O)O)c3ccccc32)cc1 [Example 166] | < 10 | 
CC(C)N(Cc1ccccc1)c1ccc(-n2cc(CC(=O)O)c3ccccc32)cc1 [Example 167] | < 10 | 
O=C(O)Cc1cn(-c2ccc(N(CCO)Cc3ccccc3)cc2)c2ccccc12 [Example 168] | 10 to 50 | 
O=C(O)Cc1cn(-c2ccc(N(Cc3ccccc3)Cc3ccccc3)cc2)c2ccccc12 [Example 169] | < 10 | 
CCCN(Cc1ccccc1)c1ccc(-n2cc(CC(=O)O)c3ccccc32)cc1 [Example 170] | 10 to 50 | 

Continued, in another order:

IC50 [1] [µM] | SMILES | further results
< 10 | O=C(O)Cc1cn(Cc2cccc(OCc3ccccc3)c2)c2ccc(Br)cc12 [Example 101] | 
< 10 | O=C(O)Cc1cn(Cc2cccc(Oc3ccccc3)c2)c2ccc(Br)cc12 [Example 105] | 
< 10 | O=C(O)Cc1cn(Cc2ccc(-c3ccccc3)cc2)c2ccc(Br)cc12 [Example 109] | 
< 10 | O=C(O)Cc1cn(Cc2cccc(-c3ccccc3)c2)c2ccc(OCc3ccccc3)cc12 [Example 112] | 
< 10 | O=C(O)Cc1cn(Cc2cccc(Oc3ccccc3)c2)c2ccc(OCc3ccccc3)cc12 [Example 115] | 
< 10 | Cc1cc(-c2cccc(Cn3cc(CC(=O)O)c4cc(OCc5ccccc5)ccc43)c2)ccc1F [Example 118] | 
< 10 | O=C(O)Cc1cn(Cc2cccc(Oc3ccc(F)cc3)c2)c2ccc(OCc3ccccc3)cc12 [Example 120] | 
< 10 | O=C(O)Cc1cn(Cc2ccc(-c3ccccc3)cc2)c2ccc(OCc3ccccc3)cc12 [Example 122] | 
< 10 | O=C(O)Cc1cn(Cc2cccc(I)c2)c2ccc(OCc3ccccc3)cc12 [Example 123] | 
< 10 | O=C(O)Cc1cn(Cc2cccc(-c3cccc(Cl)c3)c2)c2ccc(OCc3ccccc3)cc12 [Example 129] | 
< 10 | O=C(O)Cc1cn(Cc2cccc(-c3cn[nH]c3)c2)c2ccc(OCc3ccccc3)cc12 [Example 131] | 
< 10 | O=C(O)Cc1cn(Cc2csc3ccc(Br)cc23)c2ccc(Br)cc12 [Example 135] | 
< 10 | COc1ccc2scc(Cn3cc(CC(=O)O)c4cc(Br)ccc43)c2c1 [Example 136] | 
< 10 | CC(C)Oc1ccc2scc(Cn3cc(CC(=O)O)c4cc(Br)ccc43)c2c1 [Example 140] | 
< 10 | COc1cccc(-c2ccc(-n3cc(CC(=O)O)c4ccccc43)cc2)c1 [Example 144] | 
< 10 | O=C(O)Cc1cn(-c2ccc(-c3cccc(Cl)c3)cc2)c2ccccc12 [Example 145] | 
< 10 | Cc1ccc2sc(-n3cc(CC(=O)O)c4ccccc43)cc2c1 [Example 146] | 
< 10 | CCc1cc2cc(-n3cc(CC(=O)O)c4ccccc43)ccc2s1 [Example 149] | 
< 10 | Cc1c(Cl)cccc1-c1ccc(-n2cc(CC(=O)O)c3ccccc32)cc1 [Example 150] | 
< 10 | O=C(O)Cc1cn(-c2ccc(-c3cc(Cl)cc(Cl)c3)cc2)c2ccccc12 [Example 151] | 
< 10 | O=C(O)Cc1cn(-c2ccc(-c3cccc(C(F)(F)F)c3)cc2)c2ccccc12 [Example 152] | 
< 10 | O=C(O)Cc1cn(-c2ccc(-c3ccccc3Cl)cc2)c2ccccc12 [Example 153] | 
< 10 | Cc1ccccc1-c1ccc(-n2cc(CC(=O)O)c3ccccc32)cc1 [Example 154] | 
< 10 | CSc1cccc(-c2ccc(-n3cc(CC(=O)O)c4ccccc43)cc2)c1 [Example 155] | 
< 10 | O=C(O)Cc1cn(-c2ccc(NCc3ccccc3)cc2)c2ccccc12 [Example 161] | 
< 10 | CN(Cc1ccccc1)c1ccc(-n2cc(CC(=O)O)c3ccccc32)cc1 [Example 162] | 
